“Also recorded” adds a separate entry of the source. Read-outs that look alike come from different tables or passages of the source.
Experiments:
[1] = tested on: C57 mice; assay: Social preference procedure: compartment entries (proxy for locomotor stimulant effects), C57; assay type: in vivo
Protocol: (§1) This assay was conducted in adult male C57 and BTBR mice (n=6 per group) in a dedicated conditioning room where ambient light, sound, and human contact were tightly controlled. Social preference chambers consist of two polycarbonate boxes (13.5 cm wide×22.5 cm tall×31.0 cm deep), floored with rough-textured black ABS plastic, and connected to one another by a 1.25″ PVC T-junction. An infrared photobeam emitter/detector array is mounted at each intersection of the T-junction and each preference compartment, and as a mouse traversed the apparatus, it would break the photobeam upon entry to or exit from each preference compartment. Beam breaks started or stopped a counter on an interfaced computer, allowing automated collection of time spent in each compartment. At the end of each test, data were reported as time (in seconds) spent in each compartment, the number of entries into each compartment, and the average time spent in each compartment following an entry. Social preference tests were conducted in an iterative manner, with each test subject completing four distinct phases as described below. Between testing sessions, chambers were sanitized by wiping the insides with a disinfectant product provided by the UAMS Department of Laboratory Animal Medicine. At the end of the week (upon completion of all phases of the procedure), each apparatus was disassembled and all parts were sanitized. No food or water were available during social preference sessions, but were available in the home cage immediately afterwards.
Quantification of total entries into the preference compartments provided a proxy measurement for locomotor stimulant effects of the various doses of the various test drugs. This established a limit to the drug doses that can be tested in the social preference procedure, as induction of locomotor stimulant effects confounds preference assessments (because mice stop attending to the social stimuli in each compartment and instead spend their time engaged in locomotor behavior.) Motor activity varied across the distinct phases of social preference testing, in part because the habituation session is twice as long (30 minutes) as the novelty, sociability, and social novelty tests (15 minutes each), but also because mice emitted high levels of exploratory behavior in novel environments. Thus, as familiarity with the test apparatus increased over successive exposures to the chambers, the number of entries decreased.
(Note that entries were collected for every test, but drug effects on entries during earlier phases may be less reliable due to the confounding influence of changing familiarity with the apparatus across phases.)

[2] = tested on: C57 mice; assay: Novelty preference test, C57; assay type: in vivo
Protocol: as §1
A single novelty preference session occurred the day after the habituation test, where one compartment contained an empty wire mesh cup and the other compartment contained an identical wire mesh cup with a novel dummy mouse inside. The position of the dummy mouse (left or right compartment) was counterbalanced across subjects. Dummy mice were constructed from 2.5″ lengths of white ¾″ PVC pipe, with a zip tie attached to one end (to mimic a tail) and two red dots drawn on the other end (to mimic eyes.) During this session, mice were weighed, administered an injection, and returned to their home cage for a 30 min pretreatment period. Mice were then introduced into the T-junction and allowed to explore both preference compartments for 15 minutes. These tests were conducted as a procedural control to ensure that any observed drug effects were not simply due to enhancement of the innate novelty preference of mice. Novelty preference sessions always occurred on Tuesdays or Wednesdays to prevent any weekend testing.

[3] = tested on: BTBR mice; assay: Novelty preference test, BTBR; assay type: in vivo; conditions: all tested doses IP
Protocol: as §1, with “At the end of the week (upon completion of all phases of the procedure), each apparatus was disassembled and all parts were sanitized. No food or water were available during social preference sessions, but were available in the home cage immediately afterwards.” left out

[4] = tested on: C57 mice; assay: Radiotelemetry of core temperature, C57; assay type: in vivo
Protocol: (§2) The radiotelemetry assay was conducted in adult male C57 and BTBR mice (n=6 per group) in a dedicated testing room where ambient light, sound, and human contact were tightly controlled.
(§3) Prior to surgical implantation of radiotelemetry probes, mice received 3 mg/kg meloxicam (IP), and anesthesia was induced with 4% inhaled isoflurane and maintained with 1-3% isoflurane (as needed) throughout the procedure at a flow rate of 1.5 litres/minute. The abdominal area of each animal was treated with depilatory cream, then sanitized with 3 alternating scrubs with iodine and alcohol. A rostral-caudal cut approximately 1.5 cm in length was made with sterile skin scissors, providing access to the intraperitoneal cavity. A cylindrical glass-encapsulated radiotelemetry probe (model ER-4000 E-Mitter, Mini Mitter, Bend, OR, USA) was then inserted. These probes measure 15.5 mm×6.5 mm and weigh approximately 1 gram. Incisions were closed (skin layer and muscle layer separately) using reverse cutting 5-0 Vicryl absorbable sutures for the muscle layer and 5-0 nylon suture material for the skin layer. Surgeries were carried out at least 7 days before initiation of experimental conditions, allowing time for incisions to heal and for animals to recover normal body weights. Following surgery, all implanted mice were individually housed in Plexiglas cages within the telemetry room for the duration of all experiments. Implanted transmitters produce activity- and temperature-modulated signals which are sent to a receiver (model ER-4000 Receiver, Mini Mitter Co., Inc.) underneath each cage. Following use, telemetry probes were removed from carcasses, wiped with alcohol swabs, and stored in the disinfectant solution until re-use.
(§4) At least 7 days after surgical implantation of radiotelemetry probes, mice in their individual home cages were placed atop a telemetry energizer/receiver, which powered probes and transmitted their data to an interfaced computer. Upon initiation of an experimental session, the computer collected two data updates from the probes at 5 min intervals: core temperature (in ° C.) on one channel, and locomotor counts (in arbitrary units, depending on the relative position of the probe atop the receiver) on the other. After at least 60 minutes of baseline data collection, mice were removed from their cages, injected with saline or a given dose of a specific drug, then returned to the home cage 24 hours of data collection.
(§5) Food and water were always freely available in the home cage. Mice were injected with ascending doses of a given drug, with at least 48 hours separating doses. Because there are few studies of drug effects in BTBR mice, the first drug dose tested occasionally elicited unexpectedly large locomotor effects in these animals. In these cases, smaller drug doses were tested next, after a washout period of at least one full day.

[5] = tested on: BTBR mice; assay: Radiotelemetry of locomotor activity, BTBR; assay type: in vivo; conditions: for pattern of locomotor activity / dose-effect curve: any dose; for locomotor activity: 0 to 240 minutes
Protocol: as §2, §3, §4, §5

[6] = tested on: C57 mice; conditions: mouse, in vivo; for locomotor activity: ip
[7] = phase 3 trials, MDMA-assisted psychotherapy; cited from earlier work
[8] = autistic adults, MDMA-assisted psychotherapy; cited from earlier work
[9] = human urine, after racemic MDMA; cited from earlier work

Compound | compartment entries (locomotor stimulant effect) ([1]; various doses IP) | novelty preference (time spent with the dummy mouse) [3] | effect on core temperature ([4]; 10 mg/kg IP) | effect on core temperature ([4]; various/increasing doses IP) | pattern of locomotor activity / dose-effect curve [5] | locomotor dose-effect curve (total ambulatory activity) [6] | stereotypy or hyperstimulation of mice [6] | locomotor activity ([6]; 10 mg/kg) | other results
CNC(C)Cc1ccc2c(c1)OCO2 (racemic) [racemic MDMA, 1-(1,3-benzodioxol-5-yl)-N-methylpropan-2-amine] | dose-response stimulant effect | No dose of racemic MDMA (e.g comparative composition 1) or S(+)-MDMA (e.g comparative composition 3) elicited any effects on novelty preference | induced a drop in core temperature | gradual increase in core temperature | No evidence of motor stereotypy; also recorded: does not follow this biphasic pattern | classical “inverted U-shaped” dose-effect curve | stereotypy or hyperstimulation of mice is seen | lesser hyperactivity is observed | compartment entries (locomotor stimulant effect) ([1]; 3.0 mg/kg IP, social novelty test): had no effects on locomotor activity; novelty preference (time spent with the dummy mouse) ([2]; 3.0 mg/kg IP): had no effects on locomotor activity (see FIG. 4) or novelty preference; novelty preference (time spent with the dummy mouse) ([2]; 5.6 mg/kg IP): elicited avoidance of the dummy mouse; rise in core temperature ([4]; 56 mg/kg IP): ~2 degrees C.; pattern of locomotor activity across the time course [6]: consistent with motor stereotypy; locomotor activity ([6]; 30 mg/kg): elicit more activity than the pure S(+)-MDMA; efficacy to treat Post Traumatic Stress Disorder (PTSD) [7]: demonstrated efficacy; social anxiety symptoms [8]: rapid and durable improvement in social anxiety symptoms; enantiomer with higher Cmax [9]: Higher R-enantiomer Cmax
CN[C@@H](C)Cc1ccc2c(c1)OCO2 [S(+)-MDMA, (2S)-1-(1,3-benzodioxol-5-yl)-N-methylpropan-2-amine] | dose-response stimulant effect | No dose of racemic MDMA (e.g comparative composition 1) or S(+)-MDMA (e.g comparative composition 3) elicited any effects on novelty preference | elicited an increase in temperature | dose-dependent increase in temperature | No evidence of motor stereotypy | classical “inverted U-shaped” dose-effect curve | stereotypy or hyperstimulation of mice is seen | elicits the greatest locomotor stimulation | novelty preference (time spent with the dummy mouse) ([2]; various doses IP): no systematic effects on novelty preference; jump in core temperature ([4]; 18 mg/kg i.p): greater than that observed by administration of 56 mg/kg i.p of Racemic MDMA; effect on core temperature ([4]; 30 mg/kg IP): elicits significant hyperthermia; lethality during core temperature recording ([4]; approximately 5-8 hrs after injection): one animal experiencing profound hypothermia before expiring; locomotor activity ([5]; 10 mg/kg IP): elicited a substantially large stimulation in motor activity; locomotor activity ([5]; 30 mg/kg IP): elicited a large stimulation in motor activity
